Measurements reported in patent US20010000513A1, “Biphenyl butyric acids and their derivatives as inhibitors of matrix metalloproteinases” (priority 1996, published 2001).
Each block holds one molecule with its values, some of them ahead of it.

What was measured:
[1] = test system: mice sensitized with a fragment of mouse myelin basic protein to induce EAE; assay: Experimental Autoimmune Encephalomyelitis (EAE); format: in vivo
Experimental: Compounds were administered by oral route to mice sensitized with a fragment of mouse myelin basic protein to induce EAE. Mice were dosed daily for 21 days beginning 4 hours before sensitization on day one. EAE responses of compound treated groups were compared to those of a control group of mice sensitized identically and a sham-sensitized group treated with vehicle. The values reported in Table 2 include responses during compound treatment only.
Sensitization Female mice [PL/J(FI)×SJL/J, Jackson Labs], 11 weeks old, were sensitized s.c. (0.05 cc×2) at the base of the tail with an emulsion containing equal parts of mouse myelin basic protein (MBP) fragment (amino acids 1-9 of the N-terminus of MBP) in saline and Difco Complete Freund's Adjuvant (CFA) fortified with heat killed desiccated Mycobacteria tuberculosis (MT). Each mouse received 300 μg of MBP fragment (230 μg free base) and 200 μg MT followed by retrobulbar (IV) injection of 200 ng of B. pertussis toxin in 0.2 cc of saline. Two days later mice receive a second injection of B. pertussis toxin.
Neurological Assessment Animals were weighed and evaluated for symptoms of EAE before and frequently after sensitization. EAE score: (0.5=slight limp tail, 1=limp tail or slow to right, 1.5=slight limp tail and slow to right, 2=paresis/mild paralysis or incontinence, 2.5=mild paralysis and slow to right or complete paralysis (one hind limb), 3=hind limb paralysis (both), 3.5=hind limb paralysis (both) and limp torso; 4=additional fore limb paralysis, 4.5=head movement only, 5=moribund, death after previous EAE symptoms). Evaluators were blinded as to compound treatments and previous behavioral scores.
Disease symptoms are compared among groups for EAE severity, incidence, time to onset, cumulative score, and deaths. Peak EAE score: the mean of the highest score for each mouse in a group, independent of duration of symptoms; EAE incidence: the mean number of mice showing symptoms of EAE, defined as having EAE scores on any 3 consecutive days that total “≧3.0”. EAE deaths: an animal that died must have presented previous evidence of an EAE score greater than 0.5; EAE onset: the first of a 3-day series scoring a total of ≧3.0.
A Cumulative EAE score is calculated for each animal. A mean of all animals' cumulative scores is then determined for each day.
Experimental groups were assumed to be similar and were compared for statistical significance by a 2-tailed T-Test (p≦0.05).
Compound was homogenized manually with an aliquot of warm vehicle (1.0% hydroxypropyl-methylcellulose [Sigma] in water) in glass mortar tubes and homogenizing pestle. The smooth compound paste was gradually suspended in vehicle. Mice were dosed with compound and/or vehicle, 10 mL/kg in groups of ten. A sham-sensitized group was similarly dosed with vehicle.

[2] = test system: Female Lewis rats sensitized to streptococcal cell walls; assay: Streptococcal Cell Wall Model (SCW), paw swelling; format: in vivo; settings: rat SCW flare
Experimental: Female Lewis rats (125-150 g) are sensitized to the 100 P preparation of streptococcal cell walls (obtained from Lee Labs, Greyson, Ga.) with an intra-articular injection of 10 μL SCW containing 6 μg of the cell wall particles into one of the ankle joints. The contralateral ankle joint is injected with an equal volume of saline. Twenty-one days later, animals are placed in treatment groups (7 per group) according to their immediate response to the intra-articular injection of SCW (to obtain groups with equivalent responses). A control group is injected with saline. Each animal is then lightly anesthetized with ether, the paw volumes of each hind paw are determined by mercury plethysmography, and the animals are injected IV via the tail vein with a 0.25-mL dose of SCW containing 100 μg of the 100 P cell wall particles. Each group of rats receives an oral dose of compound for 7 days in an appropriate dosing vehicle beginning on Day 21. Paw swelling is determined by subtracting the paw volume of the saline injected ankle from the SCW sensitized ankle. Percent inhibition is calculated by comparing the compound treatment group with the control group. A one-way analysis of variance with a Dunnett's test for multiple comparisons is used for determination of statistical power. Rats were sensitized 21 days prior to initiating the flare response by systemic SCW. […] Paw volume was measured 24 hours after the first administration. Numbers represent the mean percent inhibition of swelling from 10 animals/treatment group.

[3] = test system: Male Swiss-Webster mice, 0.6% acetic acid i.p.; assay: Acetic Acid-Induced Hyperalgesia Model, writhing; format: in vivo; settings: for % Inhibition (writhing): 1 hour before acetic acid
Experimental: Treatment groups (n=8) were divided so that 2 animals were placed into each of four 4″×4″×4″ adjacent plexiglass containers. Seven minutes after acid, writhing motions (abdominal contractions, concave arching of the back, and/or hindleg stretching) were tallied for 5 minutes. The ID40 value was calculated by linear regression analysis.

[4] = test system: male Wistar rats, polyarthritis induced by Mycobacterium butyricum; assay: Adjuvant Arthritis Model, hind paw edema; format: in vivo; settings: P <0.001
Experimental: Polyarthritis was induced by a modified method of the procedure developed by Chang, et al., Arthritis and Rheum., 1980;23:62. Briefly, male Wistar rats (100-115 g each) received subcutaneous injection of 0.1 mL of 10 mg/mL (or 1 mg) Mycobacterium butyricum suspended in paraffin oil in the distal third of the tail, using a glass tuberculin syringe and 25 gauge needle. M. Butyricum suspension was achieved by sonication in paraffin oil for 10 minutes with the vessel immersed in ice bath. Rates were randomized after injection and placed in cages. […] The rest were randomized and separated into dosing (test) groups (N=10 per group) and control (vehicle) group (N=20). The hind paws volume and the weights of each animal in each group was recorded and served as the initial values for the study. Hind paw swelling was assessed using mercury plethysmography beginning on Day 12 and every other day till Day 22 (final assessment).
The dose volume was 10 mL/kg PO. Animals were dosed twice daily for 10 days starting on Day 12. Also, hind paw volumes were measured on Days 12, 14, 16, 18, 20, and 22 as stated above. The results are reported as % inhibition of delta edema on Day 22. Delta edema is the difference in footpad edema between the day in which animals are assessed and that on Day 12 of the study. The percent inhibition is based on a comparison of the treatment groups to the vehicle group.

Compound: O=C(O)CCC(=NO)c1ccc(-c2ccc(Cl)cc2)cc1 [Example 1, 4-(4′-Chloro-biphenyl−4-yl)-4-hydroxyimino-butyric acid]
effect on EAE cumulative score ([1]; 50 mg/kg oral): reduced the EAE cumulative score
EAE Onset ([1]; 50 mg/kg oral daily for 21 days, control 12.2 ± 0.9, p ≦0.05 vs control): 16.2 ± 1.0 days
EAE Cumulative Score ([1]; 50 mg/kg oral daily for 21 days, control 31.6 ± 1.7, p ≦0.05 vs control): 17.9 ± 2.8
EAE Deaths ([1]; 50 mg/kg oral daily for 21 days, during compound treatment, control 2/10): 0/10
EAE Incidence ([1]; 50 mg/kg oral daily for 21 days, mice with EAE/group, control 10/10): 9/10
Peak EAE Score ([1]; 50 mg/kg oral daily for 21 days, responses during compound treatment only, control 4.2 ± 0.1): 3.8 ± 0.3
EAE-induced deaths to Day 43 ([1]; 50 mg/kg oral, to Day 43): no EAE-induced deaths
delay of the onset of EAE ([1]; dosed at 50 mg/kg oral): 4 days
% Inhibition at Day 4 (paw swelling) ([2]; 3 mg/kg bid oral): 71%
% Inhibition at Day 4 (paw swelling) ([2]; 10 mg/kg bid oral): 86%
% Inhibition at Day 4 (paw swelling) ([2]; 30 mg/kg bid oral): 86%
% Inhibition (writhing) ([3]; 0.03 mg/kg oral): 7%
% Inhibition (writhing) ([3]; 0.1 mg/kg oral): 26%
% Inhibition (writhing) ([3]; 0.3 mg/kg oral): 37%
% Inhibition (writhing) ([3]; 1 mg/kg oral): 41%
% Inhibition (writhing) ([3]; 10 mg/kg oral): 65%
ID40 ([3]; oral, calculated by linear regression analysis): 0.65 mg/kg
% Inhibition of delta edema on Day 22 ([4]; 3.0 mg/kg bid PO for 10 days from Day 12): 68.1%
% Inhibition of delta edema on Day 22 ([4]; 10.0 mg/kg bid PO for 10 days from Day 12): 84.4%
% Inhibition of delta edema on Day 22 ([4]; 30.0 mg/kg bid PO for 10 days from Day 12): 99.9%

Compound: CN(C)N=C(CCC(=O)O)c1ccc(-c2ccc(Cl)cc2)cc1 [Example 3, 4-(4′-Chloro-biphenyl-4-yl)-4-(dimethylhydrazono)-butyric acid]
melting point: 158 to 160 °C

Compound: CON=C(CCC(=O)[O-])c1ccc(-c2ccc(Cl)cc2)cc1.[Na+] [Example 8, 4-(4′-Chloro-biphenyl-4-yl)-4-methoxyimino-butyric acid, sodium salt]
melting point: 234 to 238 °C

Compound: Cc1ccc(-c2ccc(C(CCC(=O)O)=NO)cc2)cc1 [Example 12, 4-Hydroxyimino-4-(4′-methyl-biphenyl-4-yl)-butyric acid]
melting point: 176.5 to 177.5 °C

Compound: COc1ccc(-c2ccc(C(CCC(=O)O)=NO)cc2)cc1 [Example 13, 4-Hydroxyimino-4-(4′-methoxy-biphenyl-4-yl)-butyric acid]
melting point: 157 to 160 °C

Compound: CSc1ccc(-c2ccc(C(CCC(=O)O)=NO)cc2)cc1 [Example 17, 4-Hydroxyimino-4-(4′-methylsulfanyl-biphenyl-4-yl)-butyric acid]
melting point: 162 to 164 °C

Compound: O=C1CCC(c2ccc(-c3ccc(Cl)cc3)cc2)=NO1 [Example 18, 3-(4′-Chloro-biphenyl-4-yl)-4,5-dihydro-6-oxo-6H-1,2-oxazine]
melting point: 190 to 192 °C

Further lines, results first:

melting point: 175 to 176 °C
Compound: O=C(O)CCC(=NO)c1ccc(-c2ccc(Br)cc2)cc1 [Example 2, 4-(4′-Bromo-biphenyl-4-yl)-4-hydroxyimino-butyric acid]

melting point: 183 to 186 °C
Compound: CON=C(CCC(=O)O)c1ccc(-c2ccc(Cl)cc2)cc1 [Example 9, 4-(4′-Chloro-biphenyl-4-yl)-4-methoxyimino-butyric acid]

melting point: 147.5 to 149.5 °C
Compound: O=C(O)CCC(=NO)c1ccc(-c2ccc(Cl)cc2F)cc1 [Example 10, 4-(4′-Chloro-2′-fluoro-biphenyl-4-yl)-4-hydroxyimino-butyric acid]

melting point: 150 to 151.5 °C
Compound: O=C(O)CCC(=NO)c1ccc(-c2ccccc2F)cc1 [Example 11, 4-(2′-Fluoro-biphenyl-4-yl)-4-hydroxyimino-butyric acid]

melting point: 157 to 159 °C
Compound: N#Cc1ccc(-c2ccc(C(CCC(=O)O)=NO)cc2)cc1 [Example 14, 4-(4′-Cyano-biphenyl-4-yl)-4-hydroxyimino-butyric acid]

melting point: 155 to 157 °C
Compound: O=C(O)CCC(=NO)c1ccc(-c2cccc(F)c2)cc1 [Example 15, 4-(3′-Fluoro-biphenyl-4-yl)-4-hydroxyimino-butyric acid]

melting point: 134 to 136 °C
Compound: O=C(O)CCC(=NO)c1ccc(-c2ccc(C(F)(F)F)cc2)cc1 [Example 16, 4-Hydroxyimino-4-(4′-trifluoromethyl-biphenyl-4-yl)-butyric acid]
